Test results as given in BigSolDB 2.1.

Cc1cc(C)nc(Nc2ccccc2)n1
solubility (mole fraction)
Conditions	283.15 K	288.15 K	293.15 K	298.15 K	303.15 K	308.15 K	313.15 K	318.15 K	323.15 K
in cyclohexane	0.00583	0.00751	0.0095	0.0123	0.0157	0.0213	0.0304	0.0435	0.0614
in ethanol	0.0146	0.0175	0.0211	0.0267	0.0332	0.0438	0.0577	0.0785	0.112
in isobutanol	0.0148	0.0178	0.0236	0.028	0.0345	0.0454	0.0652	0.0937	0.13
in isopropanol	0.0103	0.0126	0.016	0.0198	0.025	0.0324	0.0429	0.0611	0.0861
in methanol	0.0138	0.0162	0.0193	0.0245	0.0311	0.0418	0.0568	0.0765	0.107
in n-butanol	0.0193	0.0251	0.0317	0.0389	0.0498	0.0638	0.0813	0.112	0.145
in n-propanol	0.0179	0.0215	0.0264	0.0316	0.037	0.0481	0.0682	0.0971	0.131
